Experimental data taken from article PMC10123561 (Signal Transduction and Targeted Therapy, 2023).
“And” between values parts separate entries of the source, which are not always exact repeats. Equal entries are not always repeated. Structures can show the parent of a compound that is named as a salt.

Key:
[1] = test system: SARS-CoV-2 Delta; assay type: cell-based
[2] = test system: SARS-CoV-2 Omicron; assay type: cell-based

Row | SMILES | EC50 [1] | EC50 [2]
1 | CCC(CC)COC(=O)[C@H](C)N[P@](=O)(OC[C@H]1O[C@@](C#N)(c2ccc3c(N)ncnn23)[C@H](O)[C@@H]1O)Oc1ccccc1 [Remdesivir] | 0.85 µM and 1.11 µM | 1.5 ± 0.2 µM
2 | Cc1c(O)cccc1C(=O)N[C@@H](CSc1ccccc1)[C@H](O)CN1C[C@H]2CCCC[C@H]2C[C@H]1C(=O)NC(C)(C)C [nelfinavir, Nelfinavir Mesylate] | 2.09 µM and 1.76 µM | 2.03 µM and 1.73 µM
